From ChEMBL document CHEMBL1130938, “L-tryptophan urea amides as NK1/NK2 dual antagonists” (Bioorg Med Chem Lett, 1998)

What was measured:
Format in all cases: cell-based
[1] = molecular target: T1, Substance-K receptor (Homo sapiens, UniProt P21452); assay: Inhibition of cloned human NK2 (Neurokinin 2) receptor, stably expressed in chinese hamster ovary (CHO) cells was determined
T1 sequence (P21452 whole entry): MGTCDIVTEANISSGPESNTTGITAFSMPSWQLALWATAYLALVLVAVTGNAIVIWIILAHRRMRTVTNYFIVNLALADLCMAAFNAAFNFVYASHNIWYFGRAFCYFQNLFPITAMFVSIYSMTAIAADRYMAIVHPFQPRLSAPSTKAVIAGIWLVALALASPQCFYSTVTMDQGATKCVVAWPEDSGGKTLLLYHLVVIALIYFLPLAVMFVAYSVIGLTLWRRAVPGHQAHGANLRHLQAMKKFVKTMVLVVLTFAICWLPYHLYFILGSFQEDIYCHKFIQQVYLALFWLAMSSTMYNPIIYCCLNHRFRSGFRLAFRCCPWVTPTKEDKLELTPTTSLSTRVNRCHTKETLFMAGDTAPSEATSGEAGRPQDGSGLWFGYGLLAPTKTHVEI

[2] = molecular target: T2, Substance-P receptor (Homo sapiens, UniProt P25103); assay: (§1) Inhibition of cloned human NK1 (Neurokinin 1) receptor, stably expressed in chinese hamster ovary (CHO) cells was determined; details: concentration not given here
[3] = molecular target: T2, Substance-P receptor; assay: as §1

T2 sequence (P25103 whole entry): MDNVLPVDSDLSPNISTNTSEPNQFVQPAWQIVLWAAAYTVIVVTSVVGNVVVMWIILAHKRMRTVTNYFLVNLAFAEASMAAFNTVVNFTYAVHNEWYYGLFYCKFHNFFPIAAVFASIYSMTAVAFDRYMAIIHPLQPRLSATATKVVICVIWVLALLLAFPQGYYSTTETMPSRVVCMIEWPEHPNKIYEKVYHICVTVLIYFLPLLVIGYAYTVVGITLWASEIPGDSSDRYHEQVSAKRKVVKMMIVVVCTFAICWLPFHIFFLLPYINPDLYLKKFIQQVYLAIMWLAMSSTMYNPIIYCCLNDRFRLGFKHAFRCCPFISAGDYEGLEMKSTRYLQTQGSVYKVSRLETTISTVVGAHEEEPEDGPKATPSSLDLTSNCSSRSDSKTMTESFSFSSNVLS

Structure (SMILES) | IC50 [1] | inhibition [2] | IC50 [3]
O=C(Nc1ccccc1)[C@H](Cc1c[nH]c2ccccc12)NC(=O)N1CCC2(CCc3ccccc32)CC1 | 2100 nM | 39% | –
Cc1cc(C)cc(CN(C)C(=O)[C@H](Cc2c[nH]c3ccccc23)NC(=O)c2ccccc2)c1 | > 5000 nM | – | > 1100 nM
CSN1CC2(CCN(C(=O)N[C@@H](Cc3c[nH]c4ccccc34)C(=O)N(C)Cc3cc(C(F)(F)F)cc(C(F)(F)F)c3)CC2)c2ccccc21 | 4200 nM | – | 1 nM
CSN1CC2(CCN(C(=O)N[C@H](Cc3c[nH]c4ccccc34)C(=O)N(C)Cc3ccccc3)CC2)c2ccccc21 | 577 nM | – | 164 nM
CSN1CC2(CCN(C(=O)N[C@@H](Cc3c[nH]c4ccccc34)C(=O)OCc3ccccc3)CC2)c2ccccc21 | 4500 nM | – | 23 nM
CC(=O)N[C@@H](Cc1c[nH]c2ccccc12)C(=O)OCc1cc(C(F)(F)F)cc(C(F)(F)F)c1 [L-732138] | > 5000 nM | – | –
CC(=O)NC1(c2ccccc2)CCN(C(=O)N[C@@H](Cc2c[nH]c3ccccc23)C(=O)N(C)Cc2ccccc2)CC1 | 928 nM | – | 77 nM
CSN1CC2(CCN(C(=O)N[C@@H](Cc3c[nH]c4ccccc34)C(=O)OCc3cc(C(F)(F)F)cc(C(F)(F)F)c3)CC2)c2ccccc21 | > 1000 nM | – | 0.58 nM
CSN1CC2(CCN(C(=O)N[C@@H](COCc3ccccc3)C(=O)N(C)Cc3ccccc3)CC2)c2ccccc21 | 258 nM | – | 480 nM
O=C(NCCc1ccccc1)[C@H](Cc1c[nH]c2ccccc12)NC(=O)N1CCC2(CCc3ccccc32)CC1 | 211 nM | – | 332 nM
CSN1CC2(CCN(C(=O)N[C@@H](Cc3c[nH]c4ccccc34)C(=O)N(C)Cc3cc(C)cc(C)c3)CC2)c2ccccc21 | 1400 nM | – | 10 nM
CNC(=O)N[C@@H](Cc1c[nH]c2ccccc12)C(=O)OCc1cc(C)cc(C)c1 | > 5000 nM | – | –

The next molecules have a lower IC50 [1] than those just listed; values first:

IC50 [1] | inhibition [2] | IC50 [3] | Structure (SMILES)
166 nM | – | 1100 nM | CSN1CC2(CCN(C(=O)N[C@@H](CCc3ccccc3)C(=O)N(C)Cc3ccccc3)CC2)c2ccccc21
139 nM | – | 242 nM | CCN(Cc1ccccc1)C(=O)[C@H](Cc1c[nH]c2ccccc12)NC(=O)N1CCC2(CCc3ccccc32)CC1
27 nM | – | 56 nM | CN(Cc1ccccc1)C(=O)[C@H](Cc1c[nH]c2ccccc12)NC(=O)N1CCC2(CCc3ccccc32)CC1
24 nM | – | 14 nM | CSN1CC2(CCN(C(=O)N[C@@H](Cc3c[nH]c4ccccc34)C(=O)N(C)Cc3ccccc3)CC2)c2ccccc21
18 nM | – | 68 nM | CN(Cc1ccccc1)C(=O)[C@H](Cc1c[nH]c2ccccc12)NC(=O)N1CCC2(C=Cc3ccccc32)CC1
14 nM | – | 227 nM | O=C(NCc1ccccc1)[C@H](Cc1c[nH]c2ccccc12)NC(=O)N1CCC2(CCc3ccccc32)CC1
0.13 nM | – | 800 nM | CC(=O)NC1(c2ccccc2)CCN(CC[C@H](CN(C)C(=O)c2ccccc2)c2ccc(Cl)c(Cl)c2)CC1 [SAREDUTANT]
